# Laboratory results reported in patent US4247706A, “Dibenzothiepin derivatives and a process for producing the same” (Nippon Chemiphar Co., Ltd., priority 1978, dated 1981).
# Columns and labels:
# [1] = system: edema in the hind paws (carrageenan); assay: Antiinflammatory effect: carrageenan-induced edema of the hind paws; type: in vivo, Male Wister rats; details: oral, rat; for Inhibition (%) (after 3 hours): 1% carrageenan edema
# Description: Male Wister rats each weighing about 100 g, one group consisting of 5 to 7 rats, were orally given test compounds, and edema was then induced in the hind paws by a subcutaneous injection of 0.1 ml of a 1% carrageenan saline solution one hour after the administration of the test compounds. With a predetermined lapse of time, the volumes of the hind paws were measured by a volume differential meter. Indomethacin was used as an active placebo.
# [2] = system: writhing syndromes (acetic acid); assay: Analgesic effect: acetic acid-induced writhing syndromes; type: in vivo, dd Male mice; details: oral, mouse, 0.6% acetic acid writhing within 20 minutes
# Description: dd Male mice each weighing 18 to 22 g, one group consisting of 10 mice, were given by an intraperitoneal injection of 0.6% acetic acid in a dosage of 0.1 ml/10 g/body weight. The number of writhing syndromes occurring within 20 minutes after the injection was observed. These animals were given orally test compounds suspended in a 0.2% carboxymethylcellulose solution 30 minutes before the injection of acetic acid. The inhibitory percentage of each of the test compounds was calculated in comparison with a control in which a 0.2% carboxymethylcellulose solution only was given. Aspirin was used as an active placebo.
# [3] = LD50 by the Lichfield-Wilcoxon method; details: rat, in vivo, rats
# Description: This fact confirms the excellent effects of the present compounds.
SMILES,Antiinflammatory activity (ratio to Indomethacin) [1],Analgesic activity (ratio to Aspirin) [2],Inhibition (%) (after 3 hours) ([1]; 2 mg/kg),LD50 [3],Inhibition (%) (after 3 hours) ([1]; 4 mg/kg)
O=C(O)Cc1ccc2c(c1)CC(=O)c1ccccc1S2 [Comparative compound A],0.01,1,,,
O=C(O)Cc1ccc2c(c1)Sc1ccccc1C(=O)C2 [Comparative compound B],0.01,1,,,
"CC(C(N)=O)c1ccc2c(c1)CC(=O)c1ccccc1S2 (centres unmarked) [Compound 1, 2-(10,11-Dihydro-10-oxodibenzo[b,f]thiepin-2-yl)-propionamide]",,,52.5%,,
"CC(C(=O)O)c1ccc2c(c1)CC(=O)c1ccccc1S2 (centres unmarked) [Compound 2, 2-(10,11-Dihydro-10-oxodibenzo[b,f]thiepin-2-yl)-propionic acid]",2,20,55.8%,232 mg/kg,
COc1ccc2c(c1)c(CC(=O)O)c(C)n2C(=O)c1ccc(Cl)cc1 [Indomethacin],,,35.9%,,51.9%
